Here are results for four compounds from patent US12492163B2, “9H-fluorene derivatives or their pharmaceutically acceptable salts” (priority 2020, dated 2025).

Test [1] has as its target human plasma butyrylcholinesterase (hBuChE) (Homo sapiens (Human), UniProt P06276). In words: Ellman's test, inhibition of human plasma butyrylcholinesterase. It counts as biochemical. On the procedure: (§1) The spectrophotometric Ellman's test [Ellman et al.] modified for assays in 96-well plates was used to test the activity. Reagents: 5,5′-dithiobis-(2-nitrobenzoic acid) (DTNB), eqBuChE and butyrylthiocholine iodide (BTC) were purchased from Sigma-Aldrich (Steinheim, Germany). hBuChE was from Vivonics (Bedford, MA, USA). The enzymes were prepared by dissolving in demineralized water to a concentration of 0.384 U/ml. Stock solutions of test compounds were prepared by dissolving in DMSO to a concentration of 0.0034 M. They were then diluted with water to obtain the appropriate concentrations in the wells. In the first step of the test, 25 μl of test compound (or DMSO/water mixture at the appropriate ratio for blank samples) was incubated in 0.1 M phosphate buffer (200 μl, pH=8.0) with DTNB (20 μl; 0.0025M) and with the appropriate enzyme (20 μl; eqBuChE or hBuChE) at 25° C. (animal enzyme) or 36° C. (human enzyme). After a 5 minutes incubation period, 20 μl of BTC solution (0.00375 M) was added. After another 5 minutes, the changes in absorbance of the solutions were measured at 412 nm using a multifunctional microplate reader (EnSpire Multimode; PerkinElmer; Waltham, MA, USA). All compounds were tested at a screening concentration of 10 μM (eqBuChE) or 1 μM (hBuChE). The percentage of enzyme inhibition was calculated from the equation 100-(S/B)×100, where S and B were the enzymatic activity in the test sample well and in the well without sample, respectively. […] All reactions were performed in triplicate. IC50 values were calculated using non-linear regression (GraphPad Prism 5 [GraphPad Software, San Diego, CA, USA 5.00]) for the percentage of enzyme inhibition against the inhibitor concentration used. Tacrine and donepezil were used as reference compounds.
In general terms: In Ellman's method for cholinesterases, released thiocholine reacts with DTNB.

The target of a further test is mGAT1 (Mus musculus (Mouse), UniProt P31648). In words: [3H]GABA uptake inhibition, mGAT1 in HEK293 cells. It counts as cell-based. The note with it: for pIC50 (+/−SEM) mGAT1: GABA reuptake. On the procedure: (§2) Exemplary compounds according to the invention were screened at the Ludwig-Maximilian University of Munich to determine the inhibitory ability towards four mouse GAT transporters (mGAT1-mGAT4). […] The biological material was stably transfected human embryonic kidney HEK293 cells, expressing genes to the appropriate transporters. The generated radioactivity was measured with a liquid scintillation counter. […] These determinations were made according to the procedure described in detail in A. Kragler, G. Höfner, K. T. Wanner, Novel parent structures for inhibitors of the murine GABA transporters mGAT3 and mGAT4, Eur. J. Pharmacol. 519 (2005) 43-47.

A further test deals with mGAT4 (Mus musculus (Mouse), UniProt P31650). In words: [3H]GABA uptake inhibition, mGAT4 in HEK293 cells. The note with it: for percentage of [3H]GABA reuptake retained, mGAT4: inhibitor at 100 μM, remaining reuptake; for IC50: GABA reuptake, read-out: pIC50 (+/−SEM) mGAT4 (converted). Type of test: cell-based. Here is the method:
as §2

Test [2] concerns the target human recombinant beta-secretase (hBACE1) (Homo sapiens (Human), UniProt P56817). In words: FRET assay, inhibition of human recombinant beta-secretase. The note with it: for inhibition at 50 µM: 50 μM inhibitor concentration, read-out: hBACE-1 % inh; for IC50: read-out: hBACE-1 IC50. Type of test: biochemical. On the procedure:
The FRET assay [Vassar, et al.] was used to test activity using 384-well black plates and a microplate reader (EnSpire Multimode; PerkinElmer; Waltham, MA, USA). The test was purchased from Life Technologies Polska Sp. z o.o. (Warsaw, Poland). […] Stock solutions of test compounds were prepared in DMSO and then further diluted with assay buffer (50 mM sodium acetate; pH 4.5) to the appropriate concentrations in the wells. In the first step of the test, 10 μl of the substrate (Rh-[…] quencher, based on the so-called Swedish APP mutation) was mixed with 10 μl of the test compound (or assay buffer; for blank sample). The enzyme reaction was initiated by adding 10 μl of enzyme (hBACE1, 1 U/ml). The reaction mixture was incubated at 25° C. for 60 minutes, then 10 μL of Stop solution (2.5 M sodium acetate) was added. After stopping the reaction, fluorescence was measured at 576 nm. The percentage of enzyme inhibition was calculated from the formula [1−(S60−S0)/(C60−C0)]×100, where S0 and S60 are the fluorescence of the test sample (containing the enzyme, substrate and test compound) at the start of the reaction and after 60 minutes, respectively, whereas C0 and C60 were analogous fluorescence intensities in the blank samples (containing enzyme, substrate and buffer). All test compounds were tested at a concentration of 50 μM in triplicate. […] A BACE1 IV inhibitor (Calbiochem, Merck; Nottingham, UK) [Stachel et al.] was used as a reference compound. […] IC50 values for all test compounds were calculated using non-linear regression (GraphPad Prism 5 [GraphPad Software, San Diego, CA, USA 5.00]) for the percentage of enzyme inhibition against the inhibitor concentration used.

A further test addresses mGAT3 (Mus musculus (Mouse), UniProt P31649). In words: [3H]GABA uptake inhibition, mGAT3 in HEK293 cells. It counts as cell-based. To be noted: for percentage of [3H]GABA reuptake retained, mGAT3: inhibitor at 100 μM, remaining reuptake; for pIC50 (+/−SEM) mGAT3: GABA reuptake. Here is the method:
as §2

In test [3] the target is Recombinant human Aβ1-42 peptide (Homo sapiens (Human), UniProt P05067). In words: Thioflavin T test, antiaggregation activity against beta-amyloid. It counts as biochemical. The note with it: 10 μM test compound, 1.5 μM Aβ1-42; read-out: inh. Aβ aggr. % inh. On the procedure: The thioflavin T test [Levine III] was used for the determinations. Recombinant human Aβ1-42 peptide (HFIP pretreated, Merck Millipore, Darmstadt, Germany) was dissolved in DMSO to form a 75 μM stock solution. The solution was further diluted in HEPES buffer (150 mM HEPES, pH 7.4, 150 mM NaCl) to a concentration of 7.5 μM. Then, the Aβ1-42 solution was added to the test compounds (black 96-well plates were used) and diluted with thioflavin T solution (10 μM final concentration). The final mixture contained 1.5 μM Aβ1-42, 10 μM test compound, and 3% of DMSO. Fluorescence was measured every 300 s (excitation wavelength was 440 nm, emission wavelength was 490 nm) with continuous mixing between measurements. A multifunction microplate reader (Synergy H4; BioTek Instruments, Inc., Winooski, VT, USA) was used to measure the fluorescence. Fluorescence started increasing after approximately 4 hours, plateaued after 20 hours and remained virtually unchanged for the next 28 hours of incubation. The plateau-phase fluorescence intensities (in the presence and absence of test compounds) were averaged and the mean fluorescence values for the respective wells at t=0 h were subtracted from them. […] IC50 values were calculated using non-linear regression (GraphPad Prism 5 [GraphPad Software, San Diego, CA, USA 5.00]) for the percentage of aggregation inhibition against the inhibitor concentration used.

Another test deals with mGAT2 (Mus musculus (Mouse), UniProt P31651). In words: [3H]GABA uptake inhibition, mGAT2 in HEK293 cells. It counts as cell-based. To be noted: for percentage of [3H]GABA reuptake retained, mGAT2: inhibitor at 100 μM, remaining reuptake. On the procedure: as §2
The target in test [4] is horse plasma butyrylcholinesterase (eqBuChE) (Equus caballus (Horse), UniProt P81908). In words: Ellman's test, inhibition of horse plasma butyrylcholinesterase. It counts as biochemical. On the procedure:
as §1

horse plasma butyrylcholinesterase (eqBuChE), sequence (P81908 whole entry): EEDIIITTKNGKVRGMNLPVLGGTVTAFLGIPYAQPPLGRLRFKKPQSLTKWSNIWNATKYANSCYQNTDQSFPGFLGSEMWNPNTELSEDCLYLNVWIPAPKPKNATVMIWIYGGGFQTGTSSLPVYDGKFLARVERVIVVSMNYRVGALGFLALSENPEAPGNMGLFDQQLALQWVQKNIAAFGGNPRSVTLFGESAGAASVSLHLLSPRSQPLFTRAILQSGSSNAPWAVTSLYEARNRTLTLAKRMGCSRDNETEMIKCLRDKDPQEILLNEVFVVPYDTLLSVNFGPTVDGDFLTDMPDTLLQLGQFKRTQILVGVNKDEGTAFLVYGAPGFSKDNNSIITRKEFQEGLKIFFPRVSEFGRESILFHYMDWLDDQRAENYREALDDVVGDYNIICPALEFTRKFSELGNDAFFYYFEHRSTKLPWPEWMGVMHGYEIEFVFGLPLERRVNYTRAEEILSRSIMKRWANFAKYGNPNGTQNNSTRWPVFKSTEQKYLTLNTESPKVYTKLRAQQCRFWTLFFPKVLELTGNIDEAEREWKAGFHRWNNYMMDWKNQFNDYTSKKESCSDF
human plasma butyrylcholinesterase (hBuChE), sequence (P06276 29-602): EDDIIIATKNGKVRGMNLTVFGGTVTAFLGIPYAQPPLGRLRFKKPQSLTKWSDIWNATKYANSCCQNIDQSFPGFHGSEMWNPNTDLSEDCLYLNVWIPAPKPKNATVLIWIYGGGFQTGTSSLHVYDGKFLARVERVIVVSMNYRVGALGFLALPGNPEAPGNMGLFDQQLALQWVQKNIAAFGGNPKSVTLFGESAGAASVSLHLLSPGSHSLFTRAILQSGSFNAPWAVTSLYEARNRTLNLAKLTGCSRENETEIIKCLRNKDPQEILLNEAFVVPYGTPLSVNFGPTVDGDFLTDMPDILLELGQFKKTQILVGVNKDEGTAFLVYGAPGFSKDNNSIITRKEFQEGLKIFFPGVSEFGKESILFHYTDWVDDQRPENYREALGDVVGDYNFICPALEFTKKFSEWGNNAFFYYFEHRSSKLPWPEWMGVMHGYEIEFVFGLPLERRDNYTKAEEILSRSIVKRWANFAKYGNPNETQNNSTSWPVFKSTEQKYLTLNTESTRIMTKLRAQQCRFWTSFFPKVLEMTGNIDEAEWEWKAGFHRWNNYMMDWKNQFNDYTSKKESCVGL
mGAT3, sequence (P31649 whole entry): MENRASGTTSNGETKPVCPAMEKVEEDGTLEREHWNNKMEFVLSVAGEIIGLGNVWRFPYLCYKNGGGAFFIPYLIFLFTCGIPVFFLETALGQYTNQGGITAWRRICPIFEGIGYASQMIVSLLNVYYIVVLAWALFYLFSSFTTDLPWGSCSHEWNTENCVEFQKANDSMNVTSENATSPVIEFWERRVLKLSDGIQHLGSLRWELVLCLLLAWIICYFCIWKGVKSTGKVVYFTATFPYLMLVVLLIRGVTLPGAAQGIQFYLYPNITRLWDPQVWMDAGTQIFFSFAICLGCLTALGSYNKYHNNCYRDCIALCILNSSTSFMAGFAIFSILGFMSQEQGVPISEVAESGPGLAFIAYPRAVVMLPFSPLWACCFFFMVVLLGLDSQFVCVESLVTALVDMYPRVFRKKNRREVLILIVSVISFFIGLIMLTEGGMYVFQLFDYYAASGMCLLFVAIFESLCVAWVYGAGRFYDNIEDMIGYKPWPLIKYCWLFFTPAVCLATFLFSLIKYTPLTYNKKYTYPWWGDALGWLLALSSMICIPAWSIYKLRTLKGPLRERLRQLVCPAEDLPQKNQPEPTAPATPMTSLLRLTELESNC
human recombinant beta-secretase (hBACE1), sequence (P56817 46-501): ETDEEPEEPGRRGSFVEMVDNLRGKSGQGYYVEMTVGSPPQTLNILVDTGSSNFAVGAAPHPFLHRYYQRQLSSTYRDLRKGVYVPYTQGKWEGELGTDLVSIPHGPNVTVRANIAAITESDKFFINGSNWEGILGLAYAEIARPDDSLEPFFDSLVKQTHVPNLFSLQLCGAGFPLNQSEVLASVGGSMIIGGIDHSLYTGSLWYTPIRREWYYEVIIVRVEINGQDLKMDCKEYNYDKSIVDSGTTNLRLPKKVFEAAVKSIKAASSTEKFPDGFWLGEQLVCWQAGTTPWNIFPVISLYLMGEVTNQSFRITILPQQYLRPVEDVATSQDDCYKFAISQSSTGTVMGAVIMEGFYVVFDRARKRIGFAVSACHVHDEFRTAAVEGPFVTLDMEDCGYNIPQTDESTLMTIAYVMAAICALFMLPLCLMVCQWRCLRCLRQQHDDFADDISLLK
Recombinant human Aβ1-42 peptide, sequence (P05067 672-713): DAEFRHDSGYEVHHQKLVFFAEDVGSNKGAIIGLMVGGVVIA
mGAT2, sequence (P31651 whole entry): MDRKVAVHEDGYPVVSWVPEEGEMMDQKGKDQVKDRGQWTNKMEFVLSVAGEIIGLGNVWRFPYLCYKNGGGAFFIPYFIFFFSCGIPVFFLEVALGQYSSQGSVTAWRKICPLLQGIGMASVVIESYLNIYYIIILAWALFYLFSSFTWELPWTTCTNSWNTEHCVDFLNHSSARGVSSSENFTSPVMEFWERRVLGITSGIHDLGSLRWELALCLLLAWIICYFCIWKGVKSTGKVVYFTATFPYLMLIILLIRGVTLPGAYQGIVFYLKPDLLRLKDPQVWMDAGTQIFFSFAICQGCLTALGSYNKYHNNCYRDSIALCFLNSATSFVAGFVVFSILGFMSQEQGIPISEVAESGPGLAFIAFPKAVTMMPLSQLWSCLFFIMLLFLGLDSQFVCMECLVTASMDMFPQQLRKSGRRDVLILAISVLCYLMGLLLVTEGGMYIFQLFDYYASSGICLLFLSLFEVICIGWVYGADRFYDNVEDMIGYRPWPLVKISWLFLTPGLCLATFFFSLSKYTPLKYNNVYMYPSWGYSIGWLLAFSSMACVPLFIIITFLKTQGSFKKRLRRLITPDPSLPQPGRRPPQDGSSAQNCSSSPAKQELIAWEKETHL
mGAT4, sequence (P31650 whole entry): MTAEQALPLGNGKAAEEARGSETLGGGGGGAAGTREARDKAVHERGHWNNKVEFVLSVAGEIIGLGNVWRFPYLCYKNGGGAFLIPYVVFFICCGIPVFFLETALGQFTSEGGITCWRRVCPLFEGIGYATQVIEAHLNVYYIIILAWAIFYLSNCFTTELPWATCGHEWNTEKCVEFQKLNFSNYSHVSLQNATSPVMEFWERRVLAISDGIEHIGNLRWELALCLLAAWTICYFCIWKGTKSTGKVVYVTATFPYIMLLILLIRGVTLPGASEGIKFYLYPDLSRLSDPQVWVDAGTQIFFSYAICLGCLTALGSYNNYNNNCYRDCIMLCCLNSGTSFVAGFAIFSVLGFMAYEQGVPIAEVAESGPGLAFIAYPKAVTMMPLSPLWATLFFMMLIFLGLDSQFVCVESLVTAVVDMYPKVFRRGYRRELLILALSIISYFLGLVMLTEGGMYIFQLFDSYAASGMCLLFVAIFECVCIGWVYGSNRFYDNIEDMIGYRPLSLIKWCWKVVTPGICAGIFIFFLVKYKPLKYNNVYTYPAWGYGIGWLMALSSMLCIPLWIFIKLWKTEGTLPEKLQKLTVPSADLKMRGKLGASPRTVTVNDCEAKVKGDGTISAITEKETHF

For the compound `C[C@H](NC[C@@H](O)[C@H](Cc1ccccc1)NC(=O)C1c2ccccc2-c2ccccc21)c1ccccc1` [Compound 22, N-((2S,3R)-3-hydroxy-1-phenyl-4-(((S)-1-phenylethyl)amino)butan-2-yl)-9H-fluorene-9-carboxamide], in test [1] (1 μM inhibitor concentration, read-out: hBuChE % inh), the inhibition at 1 µM was less than 10%. For the same compound, the “percentage of [3H]GABA reuptake retained, mGAT1” value at mGAT1 (inhibitor at 100 μM, remaining reuptake) is given as 83%. In addition, the “percentage of [3H]GABA reuptake retained, mGAT4” value at mGAT4 turned out to be 69%. Besides, the inhibition at 50 µM in test [2] is 72.6%. At mGAT3, the “percentage of [3H]GABA reuptake retained, mGAT3” value turned out to be 90%. For the same compound, the inhibition at 10 µM in test [3] is less than 10%; in test [4] (10 μM inhibitor concentration, read-out: eqBuChE percent inhibition of enzyme) it was 42%. The “percentage of [3H]GABA reuptake retained, mGAT2” value (“percentage … mGAT2” for short) at mGAT2 was determined as 97%.
Turning to `C[C@H](NC[C@@H](O)[C@H](Cc1ccccc1)NC(=O)CC1c2ccccc2-c2ccccc21)c1ccccc1` [Compound 23, 2-(9H-fluoren-9-yl)-N-((2S,3R)-3-hydroxy-1-phenyl-4-(((S)-1-phenylethyl)amino)butan-2-yl)acetamide], the IC50 is 0.558 µM in test [1]; 7.36 µM in test [2]; 14.5 µM on mGAT2 (GABA reuptake, read-out: pIC50 (+/−SEM) mGAT2 (converted)); 8.86 µM in test [4]. Besides, the “pIC50 (+/−SEM) mGAT1” value against mGAT1 is listed as 4.73. At mGAT4, the “percentage of [3H]GABA reuptake retained, mGAT4” value amounted to 61%. In addition, the “percentage of [3H]GABA reuptake retained, mGAT3” value at mGAT3 was 59%. For the same compound, the inhibition at 10 µM in test [3] worked out at 59.4%.
With `CC(C)(C)CNC[C@@H](O)[C@H](Cc1ccccc1)NC(=O)CC1c2ccccc2-c2ccccc21` [Compound 27, 2-(9H-fluoren-9-yl)-N-((2S,3R)-3-hydroxy-4-(neopentylamino)-1-phenylbutan-2-yl)acetamide], the IC50 was 0.207 µM in test [1], 13.8 µM at mGAT4 and 0.383 µM in test [4]. Also, on mGAT1, the “pIC50 (+/−SEM) mGAT1” value is 4.32. Besides, in test [2], the inhibition at 50 µM came to 52.4%. For the same compound, the “pIC50 (+/−SEM) mGAT3” value at mGAT3 worked out at 4.52. Further, in test [3], the inhibition at 10 µM came to 53.5%. Further, at mGAT2, the “percentage … mGAT2” value was 52%.
On to `O=C(CC1c2ccccc2-c2ccccc21)N[C@@H](Cc1ccccc1)[C@H](O)CNCC1CC1` [Compound 28, N-((2S,3R)-4-((cyclopropylmethyl)amino)-3-hydroxy-1-phenylbutan-2-yl)-2-(9H-fluoren-9-yl)acetamide], for which the IC50 in test [1] was 0.246 µM; at mGAT4, 12.6 µM; in test [2] it was 12.3 µM; in test [4], 1.19 µM. For the same compound, the “pIC50 (+/−SEM) mGAT1” value at mGAT1 is listed as 4.87. The “pIC50 (+/−SEM) mGAT3” value at mGAT3 turned out to be 5.09. Also, the inhibition at 10 µM in test [3] was determined as 73.4%. The “percentage … mGAT2” value at mGAT2 stood at 10%.
